# According to patent US20110009399A1, “ORGANIC COMPOUNDS” (priority 2007, published 2011):
# Target: T1, renin (Homo sapiens, UniProt P00797)
# T1 construct: This test measures the formation of angiotensin I in human plasma; from tissue; host or cells: human plasma
# T1 sequence (P00797 67-406): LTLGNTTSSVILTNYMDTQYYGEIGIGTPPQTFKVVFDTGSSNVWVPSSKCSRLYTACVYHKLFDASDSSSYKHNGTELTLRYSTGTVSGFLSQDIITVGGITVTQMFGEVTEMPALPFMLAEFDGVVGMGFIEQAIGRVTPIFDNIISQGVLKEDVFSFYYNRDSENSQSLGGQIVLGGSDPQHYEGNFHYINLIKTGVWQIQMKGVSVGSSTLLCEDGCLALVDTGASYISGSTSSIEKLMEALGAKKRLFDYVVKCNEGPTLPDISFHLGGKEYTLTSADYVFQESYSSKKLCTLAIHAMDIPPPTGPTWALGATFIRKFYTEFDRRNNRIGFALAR
# Assay: in vitro test of Nussberger et al.: formation of angiotensin I in human plasma, radioimmunoassay
# Format: biochemical
# Details: values given as 'in the range of about', read-out: IC50, inhibition of the formation of angiotensin I
# Method: The effect of renin inhibitors is detected inter alia experimentally by means of in vitro tests where the reduction in the formation of angiotensin I is measured in various systems (human plasma, purified human renin together with synthetic or natural renin substrate). The following in vitro test of Nussberger et al. (1987) J. Cardiovascular Pharmacol., Vol. 9, pp. 39-44, is used inter alia. This test measures the formation of angiotensin I in human plasma. The amount of angiotensin I formed is determined in a subsequent radioimmunoassay. The effect of inhibitors on the formation of angiotensin I is tested in this system by adding various concentrations of these substances. […] The compounds of the present invention show inhibitory effects in the in vitro systems at minimal concentrations of about 10^−6 to about 10^−10 mol/l.
row,IC50,Structure (SMILES)
1,1 to 20 nM,"CCOC(C)COCc1ccc2c(c1)OCCOC21CCNCC1OCc1ccc2c(c1)N(CCCOC)CCO2 [Example 14, (3′S,5S)-8-({[(2R)-2-Ethoxypropyl]oxy}methyl)-3′-{[4-(3-methoxypropyl)-3,4-dihydro-2H-1,4-benzoxazin-6-yl]methoxy}-2,3-dihydrospiro[1,4-benzo-dioxepine-5,4′-piperidine]]"
2,1 to 20 nM,"CCO[C@H](C)COCc1ccc2c(c1)CCO[C@@]21CCNC[C@@H]1OCc1ccc2c(c1)N(CCCOC)CCO2 [Example 2, (1S,3′S)-6-({[(2R)-2-Ethoxypropyl]oxy}methyl)-3′-{[4-(3-methoxypropyl)-3,4-dihydro-2H-1,4-benzoxazin-6-yl]methoxy}-3,4-dihydrospiro[isochromene-1,4′-piperidine]]"
3,1 to 20 nM,"COCCCN1CCOc2ccc(CO[C@H]3CNCC[C@@]34OCc3cc(COC[C@@H](C)COC)ccc34)cc21 [Example 7, (1S,3′S)-5-({[(2S)-3-methoxy-2-methylpropyl]oxy}methyl)-3′-{[4-(3-methoxy-propyl)-3,4-dihydro-2H-1,4-benzoxazin-6-yl]methoxy}-3H-spiro[2-benzofuran-1,4′-piperidine]]"
